Experimental data from ChEMBL document CHEMBL3046063, “Synthesis and antimicrobial activity of 5-chloroindoline-2,3-dione derivatives” (2012).
≈ marks a conversion by molar mass, not a printed value.

Key:
Assay type in all cases: functional
Micrococcus luteus = experiment: Antimicrobial activity against Micrococcus luteus ATCC 4698 after 24 hr by broth dilution method; conditions: ATCC 4698, 24 h
Trichophyton longifusum = experiment: Antimicrobial activity against Trichophyton longifusum ATCC 22397 after 24 hr by broth dilution method; conditions: ATCC 22397, 24 h
Aspergillus niger = experiment: Antimicrobial activity against Aspergillus niger ATCC 9142 after 24 hr by broth dilution method; conditions: ATCC 9142, 24 h
Proteus mirabilis = experiment: Antimicrobial activity against Proteus mirabilis ATCC 49565 after 24 hr by broth dilution method; conditions: ATCC 49565, 24 h
Bacillus cereus = experiment: Antimicrobial activity against Bacillus cereus ATCC 11778 after 24 hr by broth dilution method; conditions: ATCC 11778, 24 h
Aspergillus awamori = experiment: Antimicrobial activity against Aspergillus awamori ATCC 22342 after 24 hr by broth dilution method; conditions: ATCC 22342, 24 h
Candida albicans = experiment: Antimicrobial activity against Candida albicans ATCC 10231 after 24 hr by broth dilution method; conditions: ATCC 10231, 24 h
Aspergillus fumigatus = experiment: Antimicrobial activity against Aspergillus fumigatus after 24 hr by broth dilution method
Escherichia coli = experiment: Antimicrobial activity against Escherichia coli ATCC 25922 after 24 hr by broth dilution method; conditions: ATCC 25922, 24 h
Klebsiella pneumoniae = experiment: Antimicrobial activity against Klebsiella pneumoniae ATCC 13883 after 24 hr by broth dilution method; conditions: ATCC 13883, 24 h
Rhizoctonia solani = experiment: Antimicrobial activity against Rhizoctonia solani ATCC 76131 after 24 hr by broth dilution method; conditions: ATCC 76131, 24 h
Aspergillus flavus = experiment: Antimicrobial activity against Aspergillus flavus ATCC 15517 after 24 hr by broth dilution method; conditions: ATCC 15517, 24 h
Staphylococcus hominis = experiment: Antimicrobial activity against Staphylococcus hominis ATCC 27844 after 24 hr by broth dilution method; conditions: ATCC 27844, 24 h
Proteus vulgaris = experiment: Antimicrobial activity against Proteus vulgaris ATCC 13315 after 24 hr by broth dilution method; conditions: ATCC 13315, 24 h
Pseudomonas aeruginosa = experiment: Antimicrobial activity against Pseudomonas aeruginosa ATCC 10145 after 24 hr by broth dilution method; conditions: ATCC 10145, 24 h
Bacillus spizizenii = experiment: Antimicrobial activity against Bacillus subtilis subsp. spizizenii ATCC 6633 after 24 hr by broth dilution method; conditions: ATCC 6633, 24 h
Microsporum canis = experiment: Antimicrobial activity against Arthroderma otae ATCC 11622 after 24 hr by broth dilution method; conditions: ATCC 11622, 24 h
Alternaria alternata = experiment: Antimicrobial activity against Alternaria alternata ATCC 66868 after 24 hr by broth dilution method; conditions: ATCC 66868, 24 h
Staphylococcus aureus = experiment: Antimicrobial activity against Staphylococcus aureus ATCC 25923 after 24 hr by broth dilution method; conditions: ATCC 25923, 24 h
[1] = test system: Staphylococcus epidermidis; experiment: Antimicrobial activity against Staphylococcus epidermidis ATCC 12228 after 24 hr by broth dilution method; conditions: ATCC 12228, 24 h
Fusarium solani = experiment: Antimicrobial activity against Fusarium solani ATCC 38136 after 24 hr by broth dilution method; conditions: ATCC 38136, 24 h
Salmonella typhi = experiment: Antimicrobial activity against Salmonella enterica subsp. enterica serovar Typhi ATCC 19430 after 24 hr by broth dilution method; conditions: ATCC 19430, 24 h
Trichoderma viride = experiment: Antimicrobial activity against Hypocrea rufa ATCC 52440 after 24 hr by broth dilution method; conditions: ATCC 52440, 24 h
Bacillus pumilus = experiment: Antimicrobial activity against Bacillus pumilus ATCC 14884 after 24 hr by broth dilution method; conditions: ATCC 14884, 24 h

Structure (SMILES) | MIC (Micrococcus luteus) | MIC (Trichophyton longifusum) | MIC (Aspergillus niger) | MIC (Proteus mirabilis) | MIC (Bacillus cereus) | MIC (Aspergillus awamori) | MIC (Candida albicans) | MIC (Aspergillus fumigatus) | MIC (Escherichia coli) | MIC (Klebsiella pneumoniae) | MIC (Rhizoctonia solani) | MIC (Aspergillus flavus) | MIC (Staphylococcus hominis) | MIC (Proteus vulgaris) | MIC (Pseudomonas aeruginosa) | MIC (Bacillus spizizenii) | MIC (Microsporum canis) | MIC (Alternaria alternata) | MIC (Staphylococcus aureus) | MIC [1] | further results
COc1cccc(C2C(Cl)C(=O)N2/N=C2\C(=O)Nc3ccc(Cl)cc32)c1 (configuration not stated) | 37.5 µg/mL (≈ 96.1 µM) | 18.8 µg/mL (≈ 48 µM) | 37.5 µg/mL (≈ 96.1 µM) | 75 µg/mL (≈ 192 µM) | 37.5 µg/mL (≈ 96.1 µM) | 37.5 µg/mL (≈ 96.1 µM) | 18.8 µg/mL (≈ 48 µM) | 18.8 µg/mL (≈ 48 µM) | 75 µg/mL (≈ 192 µM) | 37.5 µg/mL (≈ 96.1 µM) | 18.8 µg/mL (≈ 48 µM) | 18.8 µg/mL (≈ 48 µM) | 75 µg/mL (≈ 192 µM) | 75 µg/mL (≈ 192 µM) | 37.5 µg/mL (≈ 96.1 µM) | 75 µg/mL (≈ 192 µM) | 37.5 µg/mL (≈ 96.1 µM) | 18.8 µg/mL (≈ 48 µM) | 75 µg/mL (≈ 192 µM) | 37.5 µg/mL (≈ 96.1 µM) | MIC (Fusarium solani): 37.5 µg/mL (≈ 96.1 µM); MIC (Salmonella typhi): 75 µg/mL (≈ 192 µM); MIC (Trichoderma viride): 37.5 µg/mL (≈ 96.1 µM); MIC (Bacillus pumilus): 75 µg/mL (≈ 192 µM)
O=C1Nc2ccc(Cl)cc2/C1=N/N1C(=O)CSC1c1ccc(O)cc1 (configuration not stated) | 18.8 µg/mL (≈ 50.2 µM) | 4.68 µg/mL (≈ 12.5 µM) | 4.68 µg/mL (≈ 12.5 µM) | 18.8 µg/mL (≈ 50.2 µM) | 18.8 µg/mL (≈ 50.2 µM) | 4.68 µg/mL (≈ 12.5 µM) | 4.68 µg/mL (≈ 12.5 µM) | 4.68 µg/mL (≈ 12.5 µM) | 18.8 µg/mL (≈ 50.2 µM) | 9.37 µg/mL (≈ 25.1 µM) | 9.37 µg/mL (≈ 25.1 µM) | 9.37 µg/mL (≈ 25.1 µM) | 9.37 µg/mL (≈ 25.1 µM) | 9.37 µg/mL (≈ 25.1 µM) | 9.37 µg/mL (≈ 25.1 µM) | 18.8 µg/mL (≈ 50.2 µM) | 9.37 µg/mL (≈ 25.1 µM) | 9.37 µg/mL (≈ 25.1 µM) | 18.8 µg/mL (≈ 50.2 µM) | 9.37 µg/mL (≈ 25.1 µM) | MIC (Fusarium solani): 4.68 µg/mL (≈ 12.5 µM); MIC (Salmonella typhi): 9.37 µg/mL (≈ 25.1 µM); MIC (Trichoderma viride): 4.68 µg/mL (≈ 12.5 µM); MIC (Bacillus pumilus): 9.37 µg/mL (≈ 25.1 µM)
O=C1Nc2ccc(Cl)cc2/C1=N/N1C(=O)C(Cl)C1c1ccc(O)cc1 (configuration not stated) | 18.8 µg/mL (≈ 49.8 µM) | 4.68 µg/mL (≈ 12.4 µM) | 4.68 µg/mL (≈ 12.4 µM) | 9.37 µg/mL (≈ 24.9 µM) | 9.37 µg/mL (≈ 24.9 µM) | 4.68 µg/mL (≈ 12.4 µM) | 4.68 µg/mL (≈ 12.4 µM) | 4.68 µg/mL (≈ 12.4 µM) | 9.37 µg/mL (≈ 24.9 µM) | 18.8 µg/mL (≈ 49.8 µM) | 4.68 µg/mL (≈ 12.4 µM) | 4.68 µg/mL (≈ 12.4 µM) | 18.8 µg/mL (≈ 49.8 µM) | 9.37 µg/mL (≈ 24.9 µM) | 9.37 µg/mL (≈ 24.9 µM) | 9.37 µg/mL (≈ 24.9 µM) | 4.68 µg/mL (≈ 12.4 µM) | 4.68 µg/mL (≈ 12.4 µM) | 18.8 µg/mL (≈ 49.8 µM) | 9.37 µg/mL (≈ 24.9 µM) | MIC (Fusarium solani): 9.37 µg/mL (≈ 24.9 µM); MIC (Salmonella typhi): 9.37 µg/mL (≈ 24.9 µM); MIC (Trichoderma viride): 4.68 µg/mL (≈ 12.4 µM); MIC (Bacillus pumilus): 9.37 µg/mL (≈ 24.9 µM)
